{"source": "paper PMC12383145", "about": "“Fluorescent Peptides Internalize HeLa Cells and Kill Multidrug-Resistant Clinical Bacterial Isolates” (Antibiotics, 2025)", "format_in_all_cases": "cell-based", "key": {"[1]": {"system": "S. aureus clinical isolate 11719", "conditions": "clinical isolate 11719, 24 h"}, "[2]": {"system": "E. coli clinical isolate 1004 (susceptible)", "conditions": "clinical isolate 1004 (susceptible, 24 h)"}, "[3]": {"system": "E. coli clinical isolate 129797 (resistant)", "conditions": "clinical isolate 129797 (resistant, 24 h)"}, "[4]": {"system": "E. coli clinical isolate 301755 (MDR)", "conditions": "clinical isolate 301755 (MDR, 24 h)"}, "[5]": {"system": "E. faecalis clinical isolate 179", "conditions": "clinical isolate 179, 24 h"}, "[6]": {"system": "E. faecalis clinical isolate 213", "conditions": "clinical isolate 213, 24 h"}, "[7]": {"system": "E. faecalis clinical isolate 82", "conditions": "clinical isolate 82, 24 h"}, "[8]": {"system": "S. aureus clinical isolate 109095", "conditions": "clinical isolate 109095, 24 h"}, "[9]": {"system": "S. aureus clinical isolate 124653", "conditions": "clinical isolate 124653, 24 h"}, "[10]": {"assay": "MTT cytotoxicity assay in HeLa cells"}, "[11]": {"assay": "Hemolysis assay"}, "[12]": {"system": "erythrocytes", "assay": "Hemolysis assay", "conditions": "2 h"}, "[13]": {"system": "HeLa cells", "assay": "Micrographs of cell morphology after peptide treatment", "conditions": "100 µg/mL, 2 h, 37 °C", "source_text": "Despite these pronounced morphological alterations, there was no evidence of cell rupture, membrane disintegration, or the presence of cell fragments, indicating the absence of necrotic processes. […] Green arrows indicate normal morphologies, such as cytoplasmic elongations and polygonal shapes. Red arrows indicate morphological changes induced by the peptides, including cell rounding, shrinkage, and loss of cytoplasmic projections. Scale bar: µm. The control corresponds to untreated cells."}}, "note": "Several values for one entry are separate records, joined by “and”; a condition that tells them apart may be missing. Equal entries are not always repeated. Residues, ends and D or L forms follow the SMILES beside them. *: point of attachment. RhodamineB = CCN(CC)c1ccc2c(-c3ccccc3C(=O)*)c3ccc(=[N+](CC)CC)cc-3oc2c1", "data": [{"smiles": "CCN(CC)c1ccc2c(-c3ccccc3C(=O)N[C@@H](CCCNC(=N)N)C(=O)N[C@@H](Cc3c[nH]c4ccccc34)C(=O)N[C@@H](CCC(N)=O)C(=O)N[C@@H](Cc3c[nH]c4ccccc34)C(=O)N[C@@H](CCCNC(=N)N)C(=O)N[C@@H](Cc3c[nH]c4ccccc34)C(=O)N[C@@H](CCC(N)=O)C(=O)N[C@@H](Cc3c[nH]c4ccccc34)C(=O)N[C@@H](CCCNC(=N)N)C(N)=O)c3ccc(=[N+](CC)CC)cc-3oc2c1", "note": "[RhB-1, RhB-RWQWRWQWR] (RhodamineB-RWQWRWQWR-NH2)", "values": [{"measurement": "Minimal bactericidal concentration (MBC)", "setting": "[1]", "result": 105, "unit": "µM"}, {"measurement": "Minimal inhibitory concentration (MIC)", "setting": "[1]", "result": 52, "unit": "µM"}, {"measurement": "Minimal bactericidal concentration (MBC)", "setting": "[2]", "result": "> 105", "unit": "µM"}, {"measurement": "Minimal inhibitory concentration (MIC)", "setting": "[2]", "result": "> 105", "unit": "µM"}, {"measurement": "Minimal bactericidal concentration (MBC)", "setting": "[3]", "result": "> 105", "unit": "µM"}, {"measurement": "Minimal inhibitory concentration (MIC)", "setting": "[3]", "result": "> 105", "unit": "µM"}, {"measurement": "Minimal bactericidal concentration (MBC)", "setting": "[4]", "result": "> 105", "unit": "µM"}, {"measurement": "Minimal inhibitory concentration (MIC)", "setting": "[4]", "result": "> 105", "unit": "µM"}, {"measurement": "Minimal bactericidal concentration (MBC)", "setting": "[5]", "result": "> 105", "unit": "µM"}, {"measurement": "Minimal inhibitory concentration (MIC)", "setting": "[5]", "result": "> 105", "unit": "µM"}, {"measurement": "Minimal bactericidal concentration (MBC)", "setting": "[6]", "result": "> 105", "unit": "µM"}, {"measurement": "Minimal inhibitory concentration (MIC)", "setting": "[6]", "result": "> 105", "unit": "µM"}, {"measurement": "Minimal bactericidal concentration (MBC)", "setting": "[7]", "result": 105, "unit": "µM"}, {"measurement": "Minimal inhibitory concentration (MIC)", "setting": "[7]", "result": 26, "unit": "µM"}, {"measurement": "Minimal bactericidal concentration (MBC)", "setting": "[8]", "result": 105, "unit": "µM"}, {"measurement": "Minimal inhibitory concentration (MIC)", "setting": "[8]", "result": 26, "unit": "µM"}, {"measurement": "Minimal bactericidal concentration (MBC)", "setting": "[9]", "result": 105, "unit": "µM"}, {"measurement": "Minimal inhibitory concentration (MIC)", "setting": "[9]", "result": 105, "unit": "µM"}, {"measurement": "IC50", "setting": "[10]", "result": "117 µg/mL and 61 µM"}, {"measurement": "selectivity ratio", "setting": "[11]", "result": 0.2}, {"measurement": "hemolysis", "setting": "[11]; Percentage of hemolysis", "result": 19, "unit": "%"}, {"measurement": "Therapeutic index", "setting": "[12]", "result": 0.5}, {"measurement": "morphological changes", "setting": "[13]", "result": "appeared smaller, rounded, and contained vacuoles"}]}]}
